According to EP3153160A1, “USE OF XANTHOPHYLLS FOR THE TREATMENT OF CANCERS” (Lu, Chuen Wei, priority 2015, dated 2017):

Columns and labels:
Format in all cases: cell-based
[1] = tested on: Mouse adrenocortical Y1 cell line; test: Y1 cell growth, cell counting; settings: 40 µM astaxanthin, 1, 2 or 3 days of treatment, compared with control (DMSO treated) group; Figures 1 and 2
Method: (§1) Mouse adrenocortical Y1 cell line (ATCC, ATCC® CCL-79™) was grown in Dulbecco's modified Eagle medium (DMEM)-F12 supplemented with 10% fetal bovine serum at 37°C in a humidified atmosphere at 5% CO2.
(§2) Astaxanthin (Model NO: ATP-9601A; Yuan Yu Bio-Tech (Taiwan), Co., Ltd) was dissolved in dimethyl sulfoxide (DMSO) at concentration of 20 mM as stock solution.
(§3) The Y1 cells were incubated with DMSO or 40 µM of astaxanthin for 1, 2 or 3 days before analysis.

[2] = tested on: M059K; test: M059K cell growth, cell counting; settings: 100, 200 or 400 µM astaxanthin for 24 hours or 48 hours, cell numbers counted, vs DMSO; Figure 6
Method: (§4) Human U87MG (ATCC, ATCC® HTB-14™) cell line was grown in DMEM medium supplemented with 10% fetal bovine serum at 37°C in a humidified atmosphere at 5% CO2. M059K (ATCC, ATCC® CRL-2365™) and M059J (ATCC, ATCC® CRL-2366™) cell lines were grown in Dulbecco's modified Eagle medium (DMEM)-F12 supplemented with 10% fetal bovine serum at 37°C in a humidified atmosphere at 5% CO2.
(§5) Astaxanthin was dissolved in dimethyl sulfoxide (DMSO) at concentration of 20 mM as stock solution.
(§6) The U87MG, M059K, and M059J cell lines were treated with DMSO or 100, 200 or 400 µM of astaxanthin for 24 hours or 48 hours and cell numbers were counted.

[3] = tested on: Human U87MG; test: MTT assay of U87MG cell viability; settings: DMSO or different concentrations of astaxanthin, Figures 5A and 5B
Method: (§7) Cells were washed with PBS after the treatment, followed by addition of 1 ml MTT (3-(4,5-cimethylthiazol-2-yl)-2,5-diphenyl tetrazolium bromide) solution (2 mg/ml in PBS) in each well. After incubation for 3 hours at 37°C, 2 ml of DMSO was added and cells were incubated in the dark for 30 minutes. Absorbance was measured at the wavelength of 570 nm (OD570).
as §4, §5, §6

[4] = tested on: M059J; test: M059J cell growth, cell counting; settings: 100, 200 or 400 µM astaxanthin for 24 hours or 48 hours, cell numbers counted, vs DMSO; Figure 7
Method: as §4, §5, §6

[5] = tested on: Mouse adrenocortical Y1 cell line; test: MTT assay of Y1 cell viability; settings: Y1 cells, 40 µM astaxanthin for 48 hours, compared with DMSO treated group, Fig. 3
Method: as §1, §2, §3, §7

[6] = tested on: Human U87MG; test: U87MG cell growth, cell counting; settings: 100, 200 or 400 µM astaxanthin for 24 hours or 48 hours, cell numbers counted, vs DMSO; Figure 4
Method: as §4, §5, §6

[7] = tested on: Human U2OS; test: U2OS cell growth, cell counting; settings: 100, 200 or 400 µM astaxanthin for 72 hours, cell numbers counted, vs DMSO; Figure 8
Method: Human U2OS (ATCC, ATCC® HTB-96™) cell line was grown in DMEM medium supplemented with 10% fetal bovine serum at 37°C in a humidified atmosphere at 5% CO2.
as §5
The U2OS cell line was treated with DMSO or 100, 200 or 400 µM of astaxanthin for 72 hours and cell numbers were counted.

Structure (SMILES): CC1=C(/C=C/C(C)=C/C=C/C(C)=C/C=C/C=C(C)/C=C/C=C(C)/C=C/C2=C(C)C(=O)C(O)CC2(C)C)C(C)(C)CC(O)C1=O (stereo not shown) [astaxanthin, Astaxanthin]
- number of Y1 cells [1]: reduced
- M059K cell growth [2]: inhibited
- viability of U87MG cells [3]: reduced
- M059J cell growth [4]: inhibited
- OD570 [5]: reduced
- U87MG cell growth [6]: inhibited U87MG cell growth in a dose-dependent and time-dependent manner
- U2OS cell growth [7]: inhibited U2OS cell growth in a dose-dependent manner
